Test results as given in PubChem BioAssay AID248 (DTP/NCI, 2004).
Several values for one entry are separate records, joined by “and”; a condition that tells them apart may be missing. Equal entries are not always repeated. Toxic doses and inconclusive results are not listed. No stated cut-off is given here; in the data, active means T/C of 150% or more; inactive means T/C below 125%.

Test system: L1210 leukemia ip in BDF1 mice, survival T/C
Assay: NCI In Vivo Anticancer Drug Screen. Data for tumor model L1210 Leukemia (intraperitoneal) in B6D2F1 (BDF1) mice
Conditions: endpoint: mean survival time, higher = longer survival
In short: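 Mice bearing the transplanted tumor received compound or vehicle. Survival of the treated group was divided by that of the vehicle-treated control group to give the ratio.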

[1] = dose: 50.0 mg/kg/injection, schedule: Q04DX003 (ip), vehicle: saline with Tween-80
[2] = dose: 100.0 mg/kg/injection, schedule: Q04DX003 (ip), vehicle: saline with Tween-80
[3] = dose: 100.0 mg/kg/injection, schedule: Q01DX001 (ip), vehicle: carboxymethylcellulose (CMC)
[4] = dose: 200.0 mg/kg/injection, schedule: Q01DX001 (ip), vehicle: carboxymethylcellulose (CMC)
[5] = dose: 400.0 mg/kg/injection, schedule: Q01DX001 (ip), vehicle: carboxymethylcellulose (CMC)
[6] = dose: 50.0 mg/kg/injection, schedule: Q01DX009 (ip), vehicle: saline with Tween-80
[7] = dose: 100.0 mg/kg/injection, schedule: Q01DX009 (ip), vehicle: saline with Tween-80
[8] = dose: 200.0 mg/kg/injection, schedule: Q01DX009 (ip), vehicle: saline with Tween-80
[9] = dose: 100.0 mg/kg/injection, schedule: Q04DX003 (ip), vehicle: Klucel (hydroxypropylcellulose) (HPC)
[10] = dose: 200.0 mg/kg/injection, schedule: Q04DX003 (ip), vehicle: Klucel (hydroxypropylcellulose) (HPC)
[11] = dose: 400.0 mg/kg/injection, schedule: Q04DX003 (ip), vehicle: Klucel (hydroxypropylcellulose) (HPC)
[12] = dose: 200.0 mg/kg/injection, schedule: Q04DX003 (ip), vehicle: saline with Tween-80
[13] = dose: 400.0 mg/kg/injection, schedule: Q04DX003 (ip), vehicle: saline with Tween-80
[14] = dose: 100.0 mg/kg/injection, schedule: Q01DX009 (ip), vehicle: Klucel (hydroxypropylcellulose) (HPC)
[15] = dose: 200.0 mg/kg/injection, schedule: Q01DX009 (ip), vehicle: Klucel (hydroxypropylcellulose) (HPC)
[16] = dose: 400.0 mg/kg/injection, schedule: Q01DX009 (ip), vehicle: Klucel (hydroxypropylcellulose) (HPC)
[17] = dose: 100.0 mg/kg/injection, schedule: Q04DX002 (ip), vehicle: Klucel (hydroxypropylcellulose) (HPC)
[18] = dose: 200.0 mg/kg/injection, schedule: Q04DX002 (ip), vehicle: Klucel (hydroxypropylcellulose) (HPC)
[19] = dose: 100.0 mg/kg/injection, schedule: Q01DX009 (ip), vehicle: saline
[20] = dose: 200.0 mg/kg/injection, schedule: Q01DX009 (ip), vehicle: saline

Measured: T/C

CSc1ccc(NC(=O)Nc2ccc(C(=O)NCC(=O)O)cc2)cc1
inactive: dose: 25.0 mg/kg/injection, schedule: Q01DX009 (ip), vehicle: saline with Tween-80 102 % of control and 92 % of control | dose: 25.0 mg/kg/injection, schedule: Q04DX003 (ip), vehicle: saline with Tween-80 96 % of control | [1] 105 % of control | dose: 100.0 mg/kg/injection, schedule: Q01DX001 (ip), vehicle: saline with Tween-80 97 % of control | dose: 100.0 mg/kg/injection, schedule: Q04DX002 (ip), vehicle: saline with Tween-80 96 % of control and 91 % of control | [2] 110 % of control | dose: 200.0 mg/kg/injection, schedule: Q04DX002 (ip), vehicle: saline with Tween-80 94 % of control and 99 % of control

Cc1ccc(OCC(=O)Nc2ccc3c(c2)C(=O)c2ccccc2C3=O)c(C)c1
inactive: [3] 101 % of control | [4] 98 % of control | [5] 95 % of control

CCOC(=O)c1c(NC(C)=O)sc2c1CCCC2
inactive: [6] 108 % of control | [7] 108 % of control | [8] 95 % of control

CN(C)c1ccccc1C1CCCCCC1O (stereo not given)
inactive: dose: 75.0 mg/kg/injection, schedule: Q01DX001 (ip), vehicle: carboxymethylcellulose (CMC) 101 % of control | dose: 150.0 mg/kg/injection, schedule: Q01DX001 (ip), vehicle: carboxymethylcellulose (CMC) 90 % of control | dose: 300.0 mg/kg/injection, schedule: Q01DX001 (ip), vehicle: carboxymethylcellulose (CMC) 90 % of control

CCOCCN=Cc1c[nH]c2ccccc12
inactive: [9] 98 % of control | [10] 95 % of control | [11] 98 % of control

CC(=O)c1ccc(Br)c2ccccc12
inactive: [1] 95 % of control | [2] 100 % of control | [12] 97 % of control | [13] 94 % of control

O=c1c2ccccc2cc2ccccn12
inactive: [14] 100 % of control | [9] 95 % of control | [15] 94 % of control | [10] 97 % of control | [16] 92 % of control | [11] 97 % of control

O=C(NCCCCC(Cl)C(=O)O)c1ccccc1 (stereo not given)
inactive: [2] 100 % of control | [12] 100 % of control | [13] 100 % of control

COc1ccc(C(=O)C(C)C(C)=O)c(OCc2ccccc2)c1OC (stereo not given)
inactive: [3] 96 % of control | [4] 98 % of control | [5] 93 % of control

CCOC(=O)CNc1ccc(Br)cc1
inactive: [17] 108 % of control | [18] 108 % of control

CC(C)(C)CC(C)(C)c1ccc(OCCOc2ccc([N+](=O)[O-])cc2N)cc1
inactive: [14] 97 % of control | [9] 98 % of control | [15] 97 % of control | [10] 93 % of control | [16] 101 % of control | [11] 86 % of control

CCc1nc(=S)c2ncn(CC)c2[nH]1
inactive: [2] 106 % of control | [12] 96 % of control | [13] 90 % of control

CN(C)CC/C=C1\c2ccccc2Sc2ccc(Cl)cc21
inactive: dose: 0.04 mg/kg/injection, schedule: Q03HX024 (ip), vehicle: saline 107 % of control | dose: 0.09 mg/kg/injection, schedule: Q03HX024 (ip), vehicle: saline 105 % of control | dose: 0.18 mg/kg/injection, schedule: Q03HX024 (ip), vehicle: saline 102 % of control | dose: 0.36 mg/kg/injection, schedule: Q01DX001 (ip), vehicle: Klucel (hydroxypropylcellulose) (HPC) 102 % of control | dose: 0.37 mg/kg/injection, schedule: Q03HX024 (ip), vehicle: saline 105 % of control | dose: 0.73 mg/kg/injection, schedule: Q01DX001 (ip), vehicle: Klucel (hydroxypropylcellulose) (HPC) 97 % of control | dose: 0.74 mg/kg/injection, schedule: Q03HX024 (ip), vehicle: saline 107 % of control | dose: 1.46 mg/kg/injection, schedule: Q01DX001 (ip), vehicle: Klucel (hydroxypropylcellulose) (HPC) 108 % of control | dose: 1.49 mg/kg/injection, schedule: Q03HX024 (ip), vehicle: Klucel (hydroxypropylcellulose) (HPC) 103 % of control | dose: 2.92 mg/kg/injection, schedule: Q01DX001 (ip), vehicle: Klucel (hydroxypropylcellulose) (HPC) 105 % of control | dose: 3.8 mg/kg/injection, schedule: Q01DX001 (ip), vehicle: Klucel (hydroxypropylcellulose) (HPC) 107 % of control | dose: 3.9 mg/kg/injection, schedule: Q01DX009 (ip), vehicle: Klucel (hydroxypropylcellulose) (HPC) 105 % of control | dose: 5.6 mg/kg/injection, schedule: Q01DX001 (ip), vehicle: saline 101 % of control | dose: 5.85 mg/kg/injection, schedule: Q01DX001 (ip), vehicle: Klucel (hydroxypropylcellulose) (HPC) 105 % of control | dose: 7.5 mg/kg/injection, schedule: Q01DX001 (ip), vehicle: Klucel (hydroxypropylcellulose) (HPC) 104 % of control | dose: 7.81 mg/kg/injection, schedule: Q01DX009 (ip), vehicle: Klucel (hydroxypropylcellulose) (HPC) 92 % of control | dose: 11.25 mg/kg/injection, schedule: Q01DX001 (ip), vehicle: saline 104 % of control | dose: 15.0 mg/kg/injection, schedule: Q01DX001 (ip), vehicle: Klucel (hydroxypropylcellulose) (HPC) 107 % of control | dose: 15.62 mg/kg/injection, schedule: Q01DX009 (ip), vehicle: Klucel (hydroxypropylcellulose) (HPC) 110 % of control | dose: 22.5 mg/kg/injection, schedule: Q01DX001 (ip), vehicle: saline 101 % of control | dose: 23.43 mg/kg/injection, schedule: Q01DX001 (ip), vehicle: Klucel (hydroxypropylcellulose) (HPC) 121 % of control | dose: 30.0 mg/kg/injection, schedule: Q01DX001 (ip), vehicle: Klucel (hydroxypropylcellulose) (HPC) 112 % of control | dose: 31.25 mg/kg/injection, schedule: Q01DX009 (ip), vehicle: Klucel (hydroxypropylcellulose) (HPC) 108 % of control | dose: 31.25 mg/kg/injection, schedule: Q04DX003 (ip), vehicle: Klucel (hydroxypropylcellulose) (HPC) 107 % of control

O=C(O)CCCC1CC(=O)c2c(c(O)c3ccccc3c2O)C1=O (stereo not given)
inactive: [6] 101 % of control | [7] 103 % of control | [2] 101 % of control | [8] 101 % of control | [12] 95 % of control | [13] 95 % of control

CCCCOC(=O)c1ccc(NC(=O)Nc2c(C)cccc2C)cc1
inactive: dose: 100.0 mg/kg/injection, schedule: Q01DX009 (ip), vehicle: other 98 % of control | dose: 200.0 mg/kg/injection, schedule: Q01DX009 (ip), vehicle: other 89 % of control | dose: 400.0 mg/kg/injection, schedule: Q01DX009 (ip), vehicle: other 89 % of control

Cc1cc(Cl)c(Cl)cc1NC(=O)c1ccc(Cl)cc1Cl
inactive: [17] 108 % of control | [18] 94 % of control | dose: 400.0 mg/kg/injection, schedule: Q04DX002 (ip), vehicle: Klucel (hydroxypropylcellulose) (HPC) 108 % of control

OCC(O)C1OCOC2COCOC21 (stereo not given)
inactive: dose: 222.0 mg/kg/injection, schedule: Q01DX Z (ip), vehicle: saline 98 % of control | dose: 333.0 mg/kg/injection, schedule: Q01DX Z (ip), vehicle: saline 117 % of control | dose: 500.0 mg/kg/injection, schedule: Q01DX Z (ip), vehicle: saline 105 % of control

CCOCCC=O
inactive: dose: 50.0 mg/kg/injection, schedule: Q01DX009 (ip), vehicle: saline 97 % of control | [19] 91 % of control | [20] 91 % of control

NC(N)=NC(N)=NCc1ccc(S(N)(=O)=O)cc1
inactive: dose: 100.0 mg/kg/injection, schedule: Q01DX001 (ip), vehicle: saline 102 % of control | [19] 96 % of control | dose: 200.0 mg/kg/injection, schedule: Q01DX001 (ip), vehicle: saline 94 % of control | [20] 100 % of control | dose: 400.0 mg/kg/injection, schedule: Q01DX001 (ip), vehicle: saline 103 % of control | dose: 400.0 mg/kg/injection, schedule: Q01DX009 (ip), vehicle: saline 97 % of control

COc1ccc(Cl)cc1NC(=O)Nc1ccccc1
inactive: [14] 87 % of control | [9] 99 % of control | [15] 94 % of control | [10] 97 % of control | [16] 89 % of control | [11] 92 % of control
